Tests used:
[1] = Single dose oral pharmacokinetic study; assay type: in vivo; conditions: mouse, Mice oral PK @30 mg/kg, plasma, vehicle 10% Solutol+20% PEG; for AUC(0-t): read-out: AUC0-t; for Cmax: read-out: Cmax
Description: The test item was administered through oral route to animals (rat/mice) at 30 mg/kg dose in a suitable vehicle (10% Solutol+20% PEG) at 10 ml/kg dose volume. Blood samples (˜50 μL at each time point) were collected from retro-orbital plexus using K3 EDTA as anticoagulant in eppendorf tubes at defined time intervals 30 minutes, 1 hour, 2 hour, 4 hour, 8 hour, 24 hour & 48 hour under light ether anaesthesia. The samples were centrifuged at 3500×g to separate plasma and stored at −80° C. until analysis. Plasma 25 μl for Mice were processed as per described in sample preparation.
Standard solutions of the test compound 1 mg/mL solutions were prepared in DMSO and further dilutions were made in methanol. […] To the test compound plasma extraction was carried out using Acetonitrile precipitation. After reconstitution with solvent (50% Acetonitrile in Buffer) samples were analyzed by LCMSMS to get the concentrations to calculate PK Parameters.

[2] = Cyto-toxicity (MTT assay); assay type: cell-based

Row | Compound | AUC(0-t) [1] [µg·h/mL] | Cmax [1] [ng/mL] | viability at 4 days, 0.01 µM [2] [%] | viability at 4 days, 0.1 µM [2] [%] | viability at 4 days, 1 µM [2] [%] | viability at 4 days, 0.001 µM [2] [%] | viability at 4 days, 0.003 µM [2] [%]
1 | Cc1ccc(-c2nc3cc(C(=O)NC(C)(C)C(=O)N[C@@]45CC[C@]6(C)[C@H](CC[C@@H]7[C@@]8(C)CC[C@H](OC(=O)[C@H]9C[C@@H](C(=O)O)C9(C)C)C(C)(C)[C@@H]8CC[C@]76C)C4=C(C(C)C)C(=O)C5)ccc3[nH]2)cn1 [Example 13, (1R,3S)-3-((((3aR,5aR,5bR,7aR,9S,11aR,11bR,13aS)-1-isopropyl-5a,5b,8,8,11a-pentamethyl-3a-(2-methyl-2-(2-(6-methylpyridin-3-yl)-1H-benzo[d]imidazole-5-carboxamido)propanamido)-2-oxo-3,3a,4,5,5a,5b,6,7,7a,8,9,10,11,11a,11b,12, 13,13a-octadecahydro-2H-cyclopenta[a]chrysen-9-yl)oxy)carbonyl)-2,2-dimethylcyclobutane-1-carboxylic acid] | 18.2 | 2720 | 45 | 10 | 4 |  | 
2 | Cc1nc(C)c(C(=O)NC(C)(C)C(=O)N[C@@]23CC[C@]4(C)[C@H](CC[C@@H]5[C@@]6(C)CC[C@H](OC(=O)[C@H]7C[C@@H](C(=O)O)C7(C)C)C(C)(C)[C@@H]6CC[C@]54C)C2=C(C(C)C)C(=O)C3)s1 [Example 14, (1R,3S)-3-((((3aR,5aR,5bR,7aR,9S,11aR,11bR,13aS)-3a-(2-(2,4-dimethylthiazole-5-carboxamido)-2-methylpropanamido)-1-isopropyl-5a,5b,8,8,11a-pentamethyl-2-oxo-3,3a,4,5,5a,5b,6,7,7a,8,9,10,11,11a,11b,12,13,13a-octadecahydro-2H-cyclopenta[a]chrysen-9-yl)oxy)carbonyl)-2,2-dimethylcyclobutane-1-carboxylic acid] | 377 | 26800 | 44 | 8 | 2 |  | 
3 | CC(C)C1=C2[C@H]3CC[C@@H]4[C@@]5(C)CC[C@H](OC(=O)[C@H]6C[C@@H](C(=O)O)C6(C)C)C(C)(C)[C@@H]5CC[C@@]4(C)[C@]3(C)CC[C@@]2(NC(=O)C(C)(C)NC(=O)c2ccc3[nH]c(-c4cnccn4)nc3c2)CC1=O [Example 15, (1R,3S)-3-((((3aR,5aR,5bR,7aR,9S,11aR,11bR,13aS)-1-isopropyl-5a,5b,8,8,11a-pentamethyl-3a-(2-methyl-2-(2-(pyrazin-2-yl)-1H-benzo[d]imidazole-5-carboxamido)propanamido)-2-oxo-3,3a,4,5,5a,5b,6,7,7a,8,9,10,11,11a,11b,12,13,13a-octadecahydro-2H-cyclopenta[a]chrysen-9-yl)oxy)carbonyl)-2,2-dimethylcyclobutane-1-carboxylic acid] | 141 | 12800 | 44 | 8 | 2 |  | 
4 | CC(C)C1=C2[C@H]3CC[C@@H]4[C@@]5(C)CC[C@H](OC(=O)[C@H]6C[C@@H](C(=O)O)C6(C)C)C(C)(C)[C@@H]5CC[C@@]4(C)[C@]3(C)CC[C@@]2(NC(=O)C(C)(C)NC(=O)c2cc(C(C)C)n[nH]2)CC1=O [Example 17, (1R,3S)-3-((((3aR,5aR,5bR,7aR,9S,11aR,11bR,13aS)-1-isopropyl-3a-(2-(3-isopropyl-1H-pyrazole-5-carboxamido)-2-methylpropanamido)-5a,5b,8,8, 11a-pentamethyl-2-oxo-3,3a,4,5,5a,5b,6,7,7a,8,9,10,11,11a,11b,12,13,13a-octadecahydro-2H-cyclopenta[a]chrysen-9-yl)oxy)carbonyl)-2,2-dimethylcyclobutane-1-carboxylic acid] | 333 | 28600 | 26 |  |  | 81 | 62
5 | CC(C)C1=C2[C@H]3CC[C@@H]4[C@@]5(C)CC[C@H](OC(=O)[C@H]6C[C@@H](C(=O)O)C6(C)C)C(C)(C)[C@@H]5CC[C@@]4(C)[C@]3(C)CC[C@@]2(NC(=O)C(C)(C)NC(=O)c2ccc(N3CCOCC3)cc2)CC1=O [Example 18, (1R,3S)-3-((((3aR,5aR,5bR,7aR,9S,11aR,11bR,13aS)-1-isopropyl-5a,5b,8,8,11a-pentamethyl-3a-(2-methyl-2-(4-morpholinobenzamido)propanamido)-2-oxo-3,3a,4,5,5a,5b,6,7,7a,8,9,10,11,11a,11b,12,13,13a-octadecahydro-2H-cyclopenta[a]chrysen-9-yl)oxy)carbonyl)-2,2-dimethylcyclobutane-1-carboxylic acid] | 236 | 15900 | 29 |  |  | 78 | 61
6 | Cc1noc(C)c1C(=O)NC(C)(C)C(=O)N[C@@]12CC[C@]3(C)[C@H](CC[C@@H]4[C@@]5(C)CC[C@H](OC(=O)[C@H]6C[C@@H](C(=O)O)C6(C)C)C(C)(C)[C@@H]5CC[C@]43C)C1=C(C(C)C)C(=O)C2 [Example 19, (1R,3S)-3-((((3aR,5aR,5bR,7aR,9S,11aR,11bR,13aS)-3a-(2-(3,5-dimethylisoxazole-4-carboxamido)-2-methylpropanamido)-1-isopropyl-5a,5b,8,8,11a-pentamethyl-2-oxo-3,3a,4,5,5a,5b,6,7,7a,8,9,10,11,11a,11b,12,13,13a-octadecahydro-2H-cyclopenta[a]chrysen-9-yl)oxy)carbonyl)-2,2-dimethylcyclobutane-1-carboxylic acid] | 93 | 13900 | 40 |  |  | 79 | 65
7 | Cc1cn(-c2ccc(C(=O)NC(C)(C)C(=O)N[C@@]34CC[C@]5(C)[C@H](CC[C@@H]6[C@@]7(C)CC[C@H](OC(=O)[C@H]8C[C@@H](C(=O)O)C8(C)C)C(C)(C)[C@@H]7CC[C@]65C)C3=C(C(C)C)C(=O)C4)cc2)cn1 [Example 20, (1R,3S)-3-((((3aR,5aR,5bR,7aR,9S,11aR,11bR,13aS)-1-isopropyl-5a,5b,8,8,11a-pentamethyl-3a-(2-methyl-2-(4-(4-methyl-1H-imidazol-1-yl)benz amido)propanamido)-2-oxo-3,3a,4,5,5a,5b,6,7,7a,8,9,10,11,11a,11b,12,13,13a-octadeca hydro-2H-cyclopenta[a]chrysen-9-yl)oxy)carbonyl)-2,2-dimethylcyclobutane-1-carboxylic acid] | 236 | 19000 | 40 |  |  | 91 | 85
8 | CC(C)C1=C2[C@H]3CC[C@@H]4[C@@]5(C)CC[C@H](OC(=O)[C@@H]6C[C@H](C(=O)O)C6(C)C)C(C)(C)[C@@H]5CC[C@@]4(C)[C@]3(C)CC[C@@]2(NC(=O)C(C)(C)NC(=O)c2ccc(Cl)cc2)CC1=O [Example 21, (1S,3R)-3-((((3aR,5aR,5bR,7aR,9S,11aR,11bR,13aS)-3a-(2-(4-chlorobenzamido)-2-methylpropanamido)-1-isopropyl-5a,5b,8,8,11a-pentamethyl-2-oxo-3,3a,4,5,5a,5b,6,7,7a,8,9,10,11,11a,11b,12,13,13a-octadecahydro-2H-cyclopenta[a]chrysen-9-yl)oxy)carbonyl)-2,2-dimethylcyclobutane-1-carboxylic acid] | 191 | 16000 | 36 | 7 | 6 |  | 
9 | CC(C)C1=C2[C@H]3CC[C@@H]4[C@@]5(C)CC[C@H](OC(=O)[C@H]6C[C@@H](C(=O)O)C6(C)C)C(C)(C)[C@@H]5CC[C@@]4(C)[C@]3(C)CC[C@@]2(NC(=O)C(C)(C)NC(=O)c2ccc(F)cc2)CC1=O [Example 22, (1R,3S)-3-((((3aR,5aR,5bR,7aR,9S,11aR,11bR,13aS)-3a-(2-(4-fluorobenzamido)-2-methylpropanamido)-1-isopropyl-5a,5b,8,8,11a-pentamethyl-2-oxo-3,3a, 4,5,5a,5b,6,7,7a,8,9,10,11,11a,11b,12,13,13a-octadecahydro-2H-cyclopenta[a]chrysen-9-yl)oxy)carbonyl)-2,2-dimethylcyclobutane-1-carboxylic acid] | 490 | 23600 | 21 | 3 | 3 |  | 
10 | Cc1ccc(C(=O)NC(C)(C)C(=O)N[C@@]23CC[C@]4(C)[C@H](CC[C@@H]5[C@@]6(C)CC[C@H](OC(=O)[C@H]7C[C@@H](C(=O)O)C7(C)C)C(C)(C)[C@@H]6CC[C@]54C)C2=C(C(C)C)C(=O)C3)cc1 [Example 23, (1R,3S)-3-((((3aR,5aR,5bR,7aR,9S,11aR,11bR,13aS)-1-isopropyl-5a,5b,8,8,11a-pentamethyl-3a-(2-methyl-2-(4-methylbenzamido)propanamido)-2-oxo-3,3a,4,5,5a,5b,6,7,7a,8,9,10,11,11a,11b,12,13,13a-octadecahydro-2H-cyclopenta[a]chrysen-9-yl)oxy)carbonyl)-2,2-dimethylcyclobutane-1-carboxylic acid] | 590 | 29700 | 34 | 8 | 4 |  | 

From US20170008921A1, “C-3 NOVEL TRITERPENONE WITH C-28 REVERSE AMIDE DERIVATIVES AS HIV INHIBITORS” (HETERO RESEARCH FOUNDATION, priority 2015, published 2017)
